According to patent publication US20260216347A1, “Substituted Imidazo-Based Compounds as Ligand Directed Degraders of IRAK3” (Celgene Corporation, priority 2022, published 2026):

Experiments:
[1] = molecular target: T1, IRAK3-ePL (Homo sapiens, UniProt Q9Y616); assay: IRAK3-ePL overexpressing degradation assay (InCELL Hunter luminescence, dose response); format: cell-based; conditions: for IRAK3 ePL degradation Ymin: lowest percentage of target protein remaining following compound treatment; for DC50: read-out: IRAK3 ePL degradation EC50
T1 construct: expressed in transfected cells; host or cells: 293T CRBN OE/GSPT1 G575N KI cells, lentiviral transduction, puromycin selected
Procedure: Example B1. IRAK3-ePL Overexpressing Degradation Assay
Stable cell lines were generated by the following protocol. 3×10^5 Lenti-X 293T cells (Clonetech) were plated in 0.8 mL of media in a 12-well plate and incubated overnight at 37° C./5% CO2. Packaging plasmid (0.4 μg, pMD), envelope plasmid (0.4 μg, pSP), and lentiviral transfer IRAK3-ePL plasmid (0.8 μg, TRAK3 sequence NM_007199.3) were mixed in 0.1 mL of Opti-MEM and incubated for 5 min. Simultaneously, 2.4 μL of Lipofectamine 2000 (Invitrogen) was added to 0.1 mL of Opti-MEM (Gibco) and incubated for 5 min. The plasmid DNA and lipofectamine were combined and the mixture was allowed to incubate for 20 min.DNA:Lipofectamine Opti-MEM mixtures were then added to previously plated cells dropwise and the cells were incubated for ~16 h at 37° C./5% CO2. Following incubation, the media was removed and 1.2 mL of fresh media was added per well. Lenti-X 293T cells were incubated for ~30 h at 37° C./5% CO2. […] Following incubation, media was removed from the Lenti-X 293T wells and passed through a […] filter. Part of the viral supernatant was used to transduce cells and the rest was stored at −80° C. Viruses were then added individually (0.5 mL virus) to each well of the 293T^CRBN OE/GSPT1 G575N KI cells, followed by addition of polybrene (10 mg/mL Millipore) to each well at a final concentration of 5.0 μg/mL. Cells were incubated for ~24 h at 37° C./5% CO2. After aspirating media off plates, cells were washed with DPBS, trypsinized and plated in a 10 cm dish in 15 mL of media and […] puromycin. Following incubation of cells for ~72 h at 37° C./5% CO2, media was aspirated off plates, and cells were washed with DPBS and trypsinized. The cells were plated in a 15 cm dish in 40 mL of media with 1.0 μg/mL Puromycin (Gibco) and incubated for ~72 h at 37° C./5% CO2. Following incubation, media was removed and cells were washed with DPBS and trypsinized. The majority of cells were resuspended in Invitrogen freezing media and stored away (~6-8×10^6 cells/vial).
IRAK3-ePL cellular dose response curve degradation assays were performed by the following protocol. Compounds to be tested were dispensed into a white 384-well tissue-culture treated plate using an acoustic liquid handler. Dilutions were prepared based on a 25 μL assay volume in duplicate 10 point 3-fold serial dilutions starting with a 10 μM dose. Negative control wells were included, which only contain 0.2% DMSO to calculate 100% signal. Positive control wells containing 30 μM Ataluren (luciferase inhibitor) were included to calculate the background signal level. All wells were backfilled to a final DMSO concentration of 0.2% to ensure DMSO uniformity across wells. IRAK3-ePL expressing cells (IRAK3-ePL Lenti-X 293T^CRBN/GSPT1 G575N) were washed, trypsinized, counted, and resuspended in fresh DMEM (Gibco) to give a cell concentration of 200,000 cells/mL. 25 μL of cells (5,000 cells/well) were dispensed into the wells of the 384-well plate prespotted with compounds in the previous step and incubated overnight at 37° C./5% CO2. Following incubation, the 384-well plate was taken out of the incubator and left at room temperature for 30 min. InCELL hunter reagent was prepared according to manufacturer's instructions (EA reagent, lysis buffer, and substrate reagent in a 1:1:4 ratio, Cat #96-0002, DiscoverX), which was added to the 384-well plate 25 μL per well. Following the incubation of the plate for 1 h at room temperature, the luminescence signal was read using a ViewLux plate reader. Data was processed and analyzed in ActivityBase software. In short, the average luminescence values of the positive control wells were subtracted from the rest of the wells for background correction, and all luminescence values were normalized to the DMSO control wells. The average value of the DMSO control wells was set to equal 100% of the relative IRAK3-ePL protein levels. […]

[2] = molecular target: T2, IRAK3 (Homo sapiens, UniProt Q9Y616); assay: IRAK3 biochemical binding assay (LanthaScreen Eu Kinase Binding, TR-FRET)
T2 construct: IRAK Endogenous HTRF Degradation Assay; endogenous in cells
T2 sequence (Q9Y616 1-596): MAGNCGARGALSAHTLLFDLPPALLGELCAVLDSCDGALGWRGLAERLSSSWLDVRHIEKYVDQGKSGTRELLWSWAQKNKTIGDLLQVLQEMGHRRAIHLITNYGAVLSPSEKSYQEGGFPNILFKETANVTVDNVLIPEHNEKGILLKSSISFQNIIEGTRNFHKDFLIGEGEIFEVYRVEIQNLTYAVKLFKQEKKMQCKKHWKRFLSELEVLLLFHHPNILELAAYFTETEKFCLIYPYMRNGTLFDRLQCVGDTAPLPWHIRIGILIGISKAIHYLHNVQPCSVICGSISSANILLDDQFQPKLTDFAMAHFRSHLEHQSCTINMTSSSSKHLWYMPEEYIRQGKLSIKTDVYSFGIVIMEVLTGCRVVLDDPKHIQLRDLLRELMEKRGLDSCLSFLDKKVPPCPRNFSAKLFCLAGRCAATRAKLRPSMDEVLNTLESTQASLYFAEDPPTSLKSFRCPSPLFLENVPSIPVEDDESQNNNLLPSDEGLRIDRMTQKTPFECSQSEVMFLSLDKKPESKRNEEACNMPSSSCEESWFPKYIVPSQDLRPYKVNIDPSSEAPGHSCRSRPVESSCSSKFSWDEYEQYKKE
Procedure: Example B3. IRAK3 Biochemical Binding Assay
The LanthaScreen® Eu Kinase Binding assay was performed as described by the vendor (ThermoFisher Scientific Waltham, MA). Briefly, 100× solutions of compound were prepared in DMSO via serial dilution of the 10 mM stock solution in a 384-well reagent plate using 3-fold intervals to achieve final concentrations. 1 μL of the compound dilution series were added to the corresponding wells of a 384-well reagent plate containing 32.3 μL of 1× buffer (50 mM HEPES pH 7.4, […], 1 mM EGTA, 0.01% Brij-35). 5 μL of the buffer diluted compounds were transferred to the corresponding wells of a 384-well assay plate. 5 μL of 3× tracer was transferred to each well of the assay plate for a final tracer concentration of 10 nM. Finally, 5 μL of the 3×Eu-Anti-GST and IRAK3 mix was transferred to each well for a final concentration of 2 nM and 10 nM respectively. Reactions were allowed to incubate for 1 hour at room temperature. TR-FRET signal of the interaction (λex340/λem 665/λem 615) was read at room temperature with a delay time of 100 ρs and an integration time of 200 ρs using an Envision plate reader. Background corrected emission signal ratios at each compound concentration were used to calculate percentage of inhibition (% Inhibition). Plots of % Inhibition versus inhibitor concentrations were fit according to a dose-response equation (Eq. 1) to generate IC50 and Hill slope values using Dotmatics software (Dotmatics, Bishops Stortford, Hertfordshire, England).
Using these assays, IC50, Dmax, EC50, and DC50 values of the following compounds were determined. Dmax is defined as the maximum percent degradation achieved and DC50 is the concentration at which 50% degradation is achieved.

Row | Compound | IRAK3 ePL degradation Ymin [1] [%] | IC50 [2] [nM] | DC50 [1] [nM]
1 | CS(=O)(=O)c1ccccc1-c1cnc(Nc2cnn(C3CCN(CCN4CCN(c5ccc(C6CCC(=O)NC6=O)cc5)CC4)CC3)c2)c2nccn12 (centres unmarked) [Compound 83, 3-(4-(4-(2-(4-(4-((5-(2-(methylsulfonyl)phenyl)imidazo[1,2-a]pyrazin-8-yl)amino)-1H-pyrazol-1-yl)piperidin-1-yl)ethyl)piperazin-1-yl)phenyl) piperidine-2,6-dione] | 90 | 1600 | 
2 | O=C1CCC(c2ccc(N3CCN(CCN4CCC(n5cc(Nc6ncc(-c7ccc8c(c7)NC(=O)CO8)n7ccnc67)cn5)CC4)CC3)cc2)C(=O)N1 (centres unmarked) [Compound 15, 3-(4-(4-(2-(4-(4-((5-(3-oxo-3,4-dihydro-2H-benzo[b][1,4]oxazin-6-yl)imidazo[1,2-a]pyrazin-8-yl)amino)-1H-pyrazol-1-yl)piperidin-1-yl)ethyl)piperazin-1-yl)phenyl) piperidine-2,6-dione] | 15 | 6.4 | 0.51
3 | Cc1ccccc1-c1cnc(Nc2cnn(C3CCN(CCN4CCN(c5ccc(C6CCC(=O)NC6=O)cc5)CC4)CC3)c2)c2nccn12 (centres unmarked) [Compound 79, 3-(4-(4-(2-(4-(4-((5-(o-tolyl)imidazo[1,2-a]pyrazin-8-yl)amino)-1H-pyrazol-1-yl)piperidin-1-yl)ethyl)piperazin-1-yl)phenyl) piperidine-2,6-dione] | 29 | 260 | 29
4 | Cc1cccc(-c2cnc(Nc3cnn(C4CCN(CCN5CCN(c6ccc(C7CCC(=O)NC7=O)cc6)CC5)CC4)c3)c3nccn23)c1 (centres unmarked) [Compound 5, 3-(4-(4-(2-(4-(4-((5-(m-tolyl)imidazo[1,2-a]pyrazin-8-yl)amino)-1H-pyrazol-1-yl)piperidin-1-yl)ethyl)piperazin-1-yl)phenyl) piperidine-2,6-dione] | 14 | 5.9 | 1
5 | Cc1cc(-c2cnc(Nc3cnn([C@H]4CCN(CCN5CCN(c6ccc(C7CCC(=O)NC7=O)cc6)C[C@@H]5C)[C@@H](C)C4)c3)c3nccn23)c(F)cc1F (stereo partly drawn) [Compound 34, 3-(4-((S)-4-(2-((2S,4S)-4-(4-((5-(2,4-difluoro-5-methylphenyl)imdazo [1,2-a]pyrazin-8-yl)amino)-1H-pyrazol-1-yl)-2-methylpiperidin-1-yl)ethyl)-3-methylpiperazin-1-yl)phenyl) piperidine-2,6-dione] | 23 | 1.5 | 1.7
6 | C[C@@H]1CN(c2ccc(C3CCC(=O)NC3=O)cc2)CCN1CCN1CCC(n2cc(Nc3ncc(C4CC4)n4ccnc34)cn2)CC1 (stereo partly drawn) [Compound 32, 3-(4-((R)-4-(2-(4-(4-((5-cyclopropylimidazo[1,2-a]pyrazin-8-yl)amino)-1H-pyrazol-1-yl)piperidin-1-yl)ethyl)-3-methylpiperazin-1-yl)phenyl) piperidine-2,6-dione] | 23 | 36 | 1.4
7 | Cc1ccc(-c2cnc(Nc3cnn(C4CCN(CCN5CCN(c6ccc(C7CCC(=O)NC7=O)cc6)CC5)CC4)c3)c3nccn23)cc1 (centres unmarked) [Compound 78, 3-(4-(4-(2-(4-(4-((5-(p-tolyl)imidazo[1,2-a]pyrazin-8-yl)amino)-1H-pyrazol-1-yl)piperidin-1-yl)ethyl)piperazin-1-yl)phenyl) piperidine-2,6-dione] | 29 | 27 | 5.5
8 | Cc1cccc(-c2cnc(Nc3cnn(C4CCN(CC(=O)N5CCN(c6ccc(C7CCC(=O)NC7=O)cc6)CC5)CC4)c3)c3nccn23)c1 (centres unmarked) [Compound 20, 3-(4-(4-(2-(4-(4-((5-(m-tolyl)imidazo[1,2-a]pyrazin-8-yl)amino)-1H-pyrazol-1-yl)piperidin-1-yl)acetyl)piperazin-1-yl)phenyl)piperidine-2,6-dione] | 16 | 2.9 | 0.77
9 | Cc1cc(-c2cnc(Nc3cnn(C4CCN(CCN5CCC(n6cc(N7CCC(=O)NC7=O)cn6)CC5)CC4)c3)c3nccn23)c(F)cc1F [Compound 116, 1-(1-(1-(2-(4-(4-((5-(2,4-difluoro-5-methylphenyl)imdazo [1,2-a]pyrazin-8-yl)amino)-1H-pyrazol-1-yl)piperidin-1-yl)ethyl)piperidin-4-yl)-1H-pyrazol-4-yl) dihydropyrimidine-2,4(1H,3H)-dione] |  | 0.12 | 
10 | O=C1CCC(c2ccc(N3CCN(CC[C@H]4CC[C@H](n5cc(Nc6ncc(-c7cn[nH]c7)n7ccnc67)cn5)CC4)CC3)cc2)C(=O)N1 (stereo partly drawn) [Compound 120, 3-(4-(4-(2-((trans)-4-(4-((5-(1H-pyrazol-4-yl)imidazo[1,2-a]pyrazin-8-yl)amino)-1H-pyrazol-1-yl)cyclohexyl)ethyl)piperazin-1-yl)phenyl) piperidine-2,6-dione] |  | 1.5 | 
11 | Cc1nc(Nc2cnn(C3CCN(CCN4CCN(c5ccc(C6CCC(=O)NC6=O)cc5)CC4)CC3)c2)c2nccn2c1C (centres unmarked) [Compound 84, 3-(4-(4-(2-(4-(4-((5,6-dimethylimidazo[1,2-a]pyrazin-8-yl)amino)-1H-pyrazol-1-yl)piperidin-1-yl)ethyl)piperazin-1-yl)phenyl)piperidine-2,6-dione] |  | 24 | 
